From patent US20250332378A1, “CATHETERS” (ConvaTec Limited, priority 2023, published 2025)

Key:
Type in all cases: cell-based
E. coli = assay: Rate of kill assessment against repeat inoculation, catheter submerged in medium; settings: for time up to which rapid kill was observed: within 5 seconds following inoculation, repeat inoculation up to 24 hours; for time up to which highly effective kill was observed: all time periods post-inoculation
Procedure: (§1) To assess the sterilisation potential of the medium of the invention, a microbiology assessment was conducted which consisted of rate of kill assessments against repeat inoculation of E. coli and E. faecalis. These organisms were selected as they are commonly identified in catheter associated urinary tract infections. The selection also covers both gram-positive and gram-negative species to test the broad spectrum antimicrobial performance of the medium of the invention.
(§2) Intermittent urinary catheters, as used for Example 1, were provided and submerged in an aqueous medium comprising sodium hypochlorite and sodium chloride. The media comprising the catheters were respectively inoculated with the two microorganisms.
(§3) A direct inoculation method was applied against each microorganism. The test organisms were reinoculated following 1, 2, 3, 4, 5, 6, and 24 hours. Following each inoculation, a sample was taken after 5 seconds, 1, 5, 10 and 15 minutes to evaluate the rate of kill.
(§4) A microbiology assessment was performed using a medium of the invention comprising hypochlorous acid in an analogous manner to that performed for Example 2. However, for this test, following each inoculation, a sample was only taken after 5 seconds to evaluate the rate of kill. Further, in addition to the previous microorganisms tested, a further gram-positive organism, S. aureus, was tested.
(§5) To evaluate the antimicrobial activity further, the test was repeated using the same frequency of inoculation, but with sampling performed up to 5 minutes after reinoculation at 24 hours. Even for the most challenging organism, E. faecalis, a reduction in the microbial colony forming unit (CFU) counts of over 3 orders of magnitude was observed after 5 minutes of inoculation.
(§6) A microbiology assessment was performed using the media of the invention comprising hypochlorous acid in an analogous manner to that performed for Example 2. However, for this test, following each inoculation, samples were taken after 5 seconds, 30 seconds, 1, 2, and 5 minutes to evaluate the rate of kill.

E. faecalis = assay: as above; settings: for reduction in the microbial colony forming unit (CFU) counts: reinoculation at 24 hours; for time up to which rapid kill was observed: within 5 seconds following inoculation, repeat inoculation up to 24 hours
Procedure: as §1, §2, §3, §4, §5, §6

S. aureus = assay: as above; settings: within 5 seconds following inoculation; repeat inoculation up to 24 hours
Procedure: as §1, §2, §3, §4

E. coli NCIMB 14067 = assay: Antimicrobial efficacy at very low concentrations, total viable counts; settings: for numbers of bacteria: after 30 seconds, approximately 1×10^5 CFU/mL inoculated
Procedure: The antimicrobial efficacy of hypochlorous acid was tested at even lower concentrations (10, 25, and 50 ppm) against the challenging organism E. coli NCIMB 14067.
The representative colonies of E. coli NCIMB 14067 were dispersed in maximum recovery diluent (MRD) to obtain an optical density (OD540 nm) equivalent to approximately 1×10^6 CFU/mL. A quantitative plate count was performed on this suspension to determine the total number of viable organisms inoculated. A new suspension was prepared for each concentration tested.
A 1000 ppm hypochlorous acid solution was diluted in sterile deionised water to provide the respective 10, 25 and 50 ppm hypochlorous acid solutions.
The hypochlorous acid samples were aliquoted into 9 mL volumes and 1 mL of the challenge organism suspension was added and mixed (the final number of bacteria present is now approximately 1×10^5 CFU/mL). Following 5, 30 seconds, 1, 2, and 5 minutes, 100 μL volumes were sampled and transferred to 0.9 mL and 9.9 mL of Dey-Engley Neutralising Broth (DENB) (to provide a 1:10 and 1:100 dilution respectively), and total viable counts were performed to establish the amount present. The plates were left to dry before being inverted and incubated at 35±3° C. for at least 48 hours. A negative control was also tested whereby 1 mL of the challenge organism suspension was added to 9 mL of MRD and tested as previously described. Following the incubation period, the number of CFUs were counted on the most appropriate dilution for each sample i.e. between 25-250 CFU/plate.

[1] = test system: Enterococcus faecalis NCTC 12201; assay: In vitro direct inoculation method, comparative test
Procedure: (§7) An in vitro direct inoculation method was used to assess the antimicrobial activity of sulfanilamide in an intermittent urinary catheter scenario against […] Escherichia coli NCIMB 14067 and […] Enterococcus faecalis NCTC 12201; two microorganisms associated with urinary tract infections. Sulfanilamide concentrations of 0.1% and 0.01% were tested and bacterial levels monitored over a period of 5 minutes.
(§8) Representative colonies of the challenge microorganisms, from an 18-24 hour challenge culture plate, were dispersed in MRD to obtain an optical density (OD540 nm) equivalent to approximately 1×10^8 CFU/mL. This was diluted to obtain a working concentration of 1×10^6 CFU/mL. A quantitative count was performed to confirm the inoculum level.
(§9) The challenge organism was prepared in MRD to a concentration of approximately 1×10^6 CFU/mL. This suspension was added in a 1 mL volume to 9 mL of sample (n=3 per sample, n=2 per control) in a sterile 30 mL universal and pipetted up and down to mix. Following each testing period, 5 seconds, 30 seconds, 1 minute, 2 minutes and 5 minutes, 100 μL of the test solution was transferred to 0.9 mL and 9.9 mL volumes of DENB (1:10 and 1:100 dilutions respectively). The most appropriate dilutions were inoculated (100 μL) onto duplicate pre-dried (tryptone soy agar) TSA plates and the inoculum spread using separate sterile L-shaped spreaders (for 10^−1 and 10^−2 dilutions, 0.5 mL were placed onto duplicate plates). The TSA plates were allowed to dry before being inverted and incubated at 35±3° C. for at least 48 hours. Following the incubation period, the number of bacterial colonies were counted on the most appropriate dilution for each dressing type i.e. between 25-250 CFU/plate.
(§10) The samples tested were: 0.1% sulfanilamide in sterile deionised water (SDW); 0.01% sulfanilamide in SDW; 100 ppm hypochlorous acid in SDW; and a SDW control.

[2] = test system: Escherichia coli NCIMB 14067; assay: as above
Procedure: as §7, §8, §9, §10

[3] = 675 ppm, 30 seconds after sampling
[4] = each concentration tested (250, 675, 1000, 2000 ppm), after 5 minutes of sampling
[5] = 100 ppm in SDW, within 5 seconds and for the remaining testing period (5 minutes)
[6] = 0.1% and 0.01% in SDW, any timepoint, 5 seconds to 5 minutes

## [O][Cl+][O-] [chlorine dioxide]
E. coli
  time up to which rapid kill was observed: up to 24 hours
E. faecalis; after around 30 seconds of inoculation
  reduction in the microbial colony forming unit (CFU) counts: 4 orders of magnitude
E. faecalis
  time up to which rapid kill was observed: up to 6 hours
S. aureus
  time up to which rapid kill was observed: up to 6 hours

## OCl [hypochlorous acid]
E. coli; 250 ppm
  time up to which highly effective kill was observed: up to 5 hours
E. coli; 675 ppm and above
  time up to which highly effective kill was observed: up to 24 hours
E. coli; [3]
  time up to which effective kill was observed: up to 24 hours
E. coli; [4]
  time up to which effective kill was found: up to 24 hours
E. coli
  time up to which rapid kill was observed: up to 24 hours
E. faecalis; 250 ppm, 30 seconds post-inoculation
  time up to which highly effective kill was observed: Up to 5 hours
E. faecalis; 250 ppm, all time periods post-inoculation
  time up to which highly effective kill was observed: up to 4 hours
E. faecalis; [3]
  time up to which effective kill was observed: up to 24 hours
E. faecalis; 675 ppm, all time periods post-inoculation
  time up to which highly effective kill was observed: up to 6 hours
E. faecalis; 675 ppm, from 30 seconds post-inoculation
  time up to which highly effective kill was observed: up to 24 hours
E. faecalis; 1000 ppm, all time periods post-inoculation
  time up to which highly effective kill was observed: up to 24 hours
E. faecalis; after 5 minutes of inoculation
  reduction in the microbial colony forming unit (CFU) counts: over 3 orders of magnitude
E. faecalis; [4]
  time up to which effective kill was found: up to 24 hours
E. faecalis
  time up to which rapid kill was observed: up to 6 hours
S. aureus
  time up to which rapid kill was observed: up to 6 hours
E. coli NCIMB 14067; 25 ppm
  numbers of bacteria: undetectable numbers
E. coli NCIMB 14067; 50 ppm
  numbers of bacteria: undetectable numbers
E. coli NCIMB 14067; all concentrations (10, 25, 50 ppm) and time points tested
  CFU/mL of negative control (MRD) larger than for the samples by: over 4 orders of magnitude
[1]; [5]
  numbers of challenge organism: undetectable numbers
[2]; [5]
  numbers of challenge organism: undetectable numbers

## Nc1ccc(S(N)(=O)=O)cc1 [sulfanilamide, reference compound]
[1]; [6]
  change in challenge organism numbers compared to the control: no decrease
[2]; [6]
  change in challenge organism numbers compared to the control: no decrease
